From ChEMBL document CHEMBL3046607, “Synthesis and Herbicidal Activity of New 1-Alkyl-3-aryloxypyrazole-4-carboxamide Derivatives” (J Pestic Sci, 2004)
Activity calls are given as the source filed them. The rule behind the calls is not given here.

How the values were obtained:
Ammannia multiflora [1] = test: Pre-emergence herbicidal activity against Ammannia multiflora at 500 g a.i/ha measured after 14 days; type: functional, organism-based
[2] = tested on: Schoenoplectiella juncoides; test: Pre-emergence herbicidal activity against Schoenoplectiella juncoides assessed as bleaching of stem/leaf parts; type: functional, organism-based
Cyperus difformis [3] = test: Pre-emergence herbicidal activity against Cyperus difformis at 500 g a.i/ha measured after 14 days; type: functional, organism-based
Elatine triandra [4] = test: Post-emergence herbicidal activity against Elatine triandra assessed as bleaching of stem/leaf parts; type: functional, organism-based; also: test concentration or dose not given here
Lindernia procumbens [5] = test: Post-emergence herbicidal activity against Lindernia procumbens assessed as bleaching of stem/leaf parts; type: functional, organism-based; also: test concentration or dose not given here
Ammannia multiflora [6] = test: Pre-emergence herbicidal activity against Ammannia multiflora assessed as bleaching of stem/leaf parts; type: functional, organism-based
Pontederia vaginalis [7] = test: Post-emergence herbicidal activity against Monochoria vaginalis assessed as bleaching of stem/leaf parts; type: functional, organism-based
Cyperus difformis [8] = test: Pre-emergence herbicidal activity against Cyperus difformis assessed as bleaching of stem/leaf parts; type: functional, organism-based
Echinochloa oryzicola [9] = test: Pre-emergence herbicidal activity against Echinochloa oryzicola assessed as bleaching of stem/leaf parts; type: functional, organism-based
Pontederia vaginalis [10] = test: Pre-emergence herbicidal activity against Monochoria vaginalis at 500 g a.i/ha measured after 14 days; type: functional, organism-based
Echinochloa oryzicola [11] = test: Pre-emergence herbicidal activity against Echinochloa oryzicola at 500 g a.i/ha measured after 14 days; type: functional, organism-based
Cyperus difformis [12] = test: Post-emergence herbicidal activity against Cyperus difformis assessed as bleaching of stem/leaf parts; type: functional, organism-based; also: test concentration or dose not given here
Lindernia procumbens [13] = test: Pre-emergence herbicidal activity against Lindernia procumbens assessed as bleaching of stem/leaf parts; type: functional, organism-based
Rotala indica [14] = test: Pre-emergence herbicidal activity against Rotala indica at 500 g a.i/ha measured after 14 days; type: functional, organism-based
Pontederia vaginalis [15] = test: Pre-emergence herbicidal activity against Monochoria vaginalis assessed as bleaching of stem/leaf parts; type: functional, organism-based
Oryza sativa = test: Phytotoxicity against Oryza sativa cv. Koshihikari (rice) at 500 g a.i/ha measured after 14 days; type: organism-based; details: in vivo, 336 h
Ammannia multiflora [16] = test: Post-emergence herbicidal activity against Ammannia multiflora assessed as bleaching of stem/leaf parts; type: functional, organism-based
Rotala indica [17] = test: Post-emergence herbicidal activity against Rotala indica assessed as bleaching of stem/leaf parts; type: functional, organism-based
Echinochloa oryzicola [18] = test: Post-emergence herbicidal activity against Echinochloa oryzicola assessed as bleaching of stem/leaf parts; type: functional, organism-based
[19] = tested on: Schoenoplectiella juncoides; test: Post-emergence herbicidal activity against Schoenoplectiella juncoides assessed as bleaching of stem/leaf parts; type: functional, organism-based; also: test concentration or dose not given here
Elatine triandra [20] = test: Pre-emergence herbicidal activity against Elatine triandra at 500 g a.i/ha measured after 14 days; type: functional, organism-based
[21] = tested on: Schoenoplectiella juncoides; test: Pre-emergence herbicidal activity against Schoenoplectiella juncoides at 500 g a.i/ha measured after 14 days; type: functional, organism-based
Elatine triandra [22] = test: Pre-emergence herbicidal activity against Elatine triandra assessed as bleaching of stem/leaf parts; type: functional, organism-based
Lindernia procumbens [23] = test: Pre-emergence herbicidal activity against Lindernia procumbens at 500 g a.i/ha measured after 14 days; type: functional, organism-based
Rotala indica [24] = test: Pre-emergence herbicidal activity against Rotala indica assessed as bleaching of stem/leaf parts; type: functional, organism-based

Row | SMILES | Activity (Ammannia multiflora [1]) | Activity [2] | Activity (Cyperus difformis [3]) | Activity (Elatine triandra [4]) | Activity (Lindernia procumbens [5]) | Activity (Ammannia multiflora [6]) | Activity (Pontederia vaginalis [7]) | Activity (Cyperus difformis [8]) | Activity (Echinochloa oryzicola [9]) | Activity (Pontederia vaginalis [10]) | Activity (Echinochloa oryzicola [11]) | Activity (Cyperus difformis [12]) | Activity (Lindernia procumbens [13]) | Activity (Rotala indica [14]) | Activity (Pontederia vaginalis [15]) | Activity (Oryza sativa) | Activity (Ammannia multiflora [16]) | Activity (Rotala indica [17]) | Activity (Echinochloa oryzicola [18]) | Activity [19] | other results
1 | Cn1cc(NC(=O)c2ccc(F)cc2)c(Oc2cccc(C(F)(F)F)c2)n1 | inactive | Active | inactive | Active | Active | Active | Active | Active | Active | inactive | inactive | Active | Active | inactive | Active | Non-toxic | Active | Active | Active | Active | Activity (Elatine triandra [20]): inactive; Activity [21]: inactive; Activity (Elatine triandra [22]): Active; Activity (Lindernia procumbens [23]): inactive; Activity (Rotala indica [24]): Active
2 | C#CCNC(=O)c1cn(C)nc1Oc1cccc(C(F)(F)F)c1 | inactive | Active | inactive | Active | Active | Active | Active | Active | Active | inactive | inactive | Active | Active | inactive | Active | Non-toxic | Active | Active | Active | Active | Activity (Elatine triandra [20]): inactive; Activity [21]: inactive; Activity (Elatine triandra [22]): Active; Activity (Lindernia procumbens [23]): inactive; Activity (Rotala indica [24]): Active
3 | Cn1cc(NC(=O)c2ccc(F)cc2F)c(Oc2cccc(C(F)(F)F)c2)n1 | inactive | Active | inactive | Active | Active | Active | Active | Active | Active | inactive | inactive | Active | Active | inactive | Active | Non-toxic | Active | Active | Active | Active | Activity (Elatine triandra [20]): inactive; Activity [21]: inactive; Activity (Elatine triandra [22]): Active; Activity (Lindernia procumbens [23]): inactive; Activity (Rotala indica [24]): Active
4 | Cn1cc(C(=O)NCc2cccc(Cl)c2)c(Oc2cccc(C(F)(F)F)c2)n1 | inactive | Active | inactive | Active | Active | Active | Active | Active | Active | inactive | inactive | Active | Active | inactive | Active | Non-toxic | Active | Active | Active | Active | Activity (Elatine triandra [20]): inactive; Activity [21]: inactive; Activity (Elatine triandra [22]): Active; Activity (Lindernia procumbens [23]): inactive; Activity (Rotala indica [24]): Active
5 | Cn1cc(NC(=O)c2ccc(F)cc2F)c(OCc2cccc(C(F)(F)F)c2)n1 | Active | Active | Active | Active | Active | Active | Active | Active | Active | Active | Active | Active | Active | Active | Active | Non-toxic | Active | Active | Active | Active | Activity (Elatine triandra [20]): Active; Activity [21]: Active; Activity (Elatine triandra [22]): Active; Activity (Lindernia procumbens [23]): Active; Activity (Rotala indica [24]): Active
6 | CCCCNC(=O)c1cn(C)nc1Oc1cccc(C(F)(F)F)c1 | inactive | Active | inactive | Active | Active | Active | Active | Active | Active | inactive | inactive | Active | Active | inactive | Active | Non-toxic | Active | Active | Active | Active | Activity (Elatine triandra [20]): inactive; Activity [21]: inactive; Activity (Elatine triandra [22]): Active; Activity (Lindernia procumbens [23]): inactive; Activity (Rotala indica [24]): Active
7 | Cn1cc(NC(=O)c2ccccc2)c(Oc2cccc(C(F)(F)F)c2)n1 | inactive | Active | inactive | Active | Active | Active | Active | Active | Active | inactive | Active | Active | Active | inactive | Active | Non-toxic | Active | Active | Active | Active | Activity (Elatine triandra [20]): inactive; Activity [21]: inactive; Activity (Elatine triandra [22]): Active; Activity (Lindernia procumbens [23]): inactive; Activity (Rotala indica [24]): Active
8 | CCCN(CC)C(=O)c1cn(C)nc1Oc1cccc(C(F)(F)F)c1 | inactive | Active | inactive | Active | Active | Active | Active | Active | Active | inactive | inactive | Active | Active | inactive | Active | Non-toxic | Active | Active | Active | Active | Activity (Elatine triandra [20]): inactive; Activity [21]: inactive; Activity (Elatine triandra [22]): Active; Activity (Lindernia procumbens [23]): inactive; Activity (Rotala indica [24]): Active
9 | Cn1cc(C(=O)NC2CC2)c(Oc2cccc(C(F)(F)F)c2)n1 | inactive | Active | inactive | Active | Active | Active | Active | Active | Active | inactive | inactive | Active | Active | inactive | Active | Non-toxic | Active | Active | Active | Active | Activity (Elatine triandra [20]): inactive; Activity [21]: inactive; Activity (Elatine triandra [22]): Active; Activity (Lindernia procumbens [23]): inactive; Activity (Rotala indica [24]): Active
